SMILES strings stand for the structures. Structures can show the parent of a compound that is named as a salt.

Data on 19 compounds can be found in ChEMBL document CHEMBL1268853, “Characterization of Acetylcholinesterase Inhibitory Constituents from Annona glabra Assisted by HPLC Microfractionation” (J Nat Prod, 2010).

In the test the target is Acetylcholinesterase (Electrophorus electricus, UniProt O42275). Put plainly: Inhibition of electric eel AChE by Ellman's method. A general note: In Ellman's method for cholinesterases, released thiocholine reacts with DTNB.
Chain of Acetylcholinesterase (O42275 whole entry): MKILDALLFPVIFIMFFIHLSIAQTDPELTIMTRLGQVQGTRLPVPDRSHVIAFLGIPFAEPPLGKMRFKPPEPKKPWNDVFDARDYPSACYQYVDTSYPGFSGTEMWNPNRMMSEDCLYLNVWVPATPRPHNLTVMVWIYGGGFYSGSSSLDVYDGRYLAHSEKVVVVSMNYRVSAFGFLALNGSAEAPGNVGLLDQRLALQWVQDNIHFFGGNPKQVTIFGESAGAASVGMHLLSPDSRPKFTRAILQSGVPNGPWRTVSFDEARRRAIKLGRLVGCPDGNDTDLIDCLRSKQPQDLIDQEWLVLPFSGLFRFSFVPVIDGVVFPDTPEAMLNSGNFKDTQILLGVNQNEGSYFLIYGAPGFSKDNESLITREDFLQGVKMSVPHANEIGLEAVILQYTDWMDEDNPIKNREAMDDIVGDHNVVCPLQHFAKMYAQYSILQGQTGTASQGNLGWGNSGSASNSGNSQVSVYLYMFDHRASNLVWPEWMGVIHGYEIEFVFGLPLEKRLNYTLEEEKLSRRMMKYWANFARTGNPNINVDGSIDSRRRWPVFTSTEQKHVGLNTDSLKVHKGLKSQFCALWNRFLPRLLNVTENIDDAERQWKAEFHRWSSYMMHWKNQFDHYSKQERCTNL

In the case of `COc1cccc2c1C(=O)c1c(C)cc(=O)[nH]c1C2=O`, half-maximal inhibition (IC50) required 23.4 µM.
Then `COc1cc2c(cc1O)C[N@+]1(C)CCc3cc(OC)c(OC)cc3[C@@H]1C2`, with 8.4 µM.
As for `COc1c(O)c2c3c(c1OC)-c1ccccc1C[C@H]3NCC2`, the figure is 110 µM.
As for `COc1cc2c(cc1OC)-c1cc3cc(OC)c(OC)cc3c[n+]1CC2` [PSEUDOPALMATINE TRIFLUOROACETATE], the figure is 1.8 µM; as for `COc1cc2ccnc3c2c(c1OC)-c1cc2c(cc1C3=O)OCO2`, > 150 µM; as for `COc1cc2c(cc1O)-c1cc3cc(OC)c(OC)cc3c[n+]1CC2` [PSEUDOCOLUMBAMINE TRIFLUOROACETATE], 5 µM.
As for `COc1cc2c[n+]3c(cc2cc1O)-c1cc(OC)c(OC)cc1CC3` [DEHYDROCORYTENCHINE TRIFLUOROACETATE], the concentration for half-maximal inhibition (IC50) was determined as 97.6 µM. Compared with the last compound, the IC50 is about 20-fold higher.
Turning to `O=C1c2ccccc2-c2c3c(cc4ccnc1c24)OCO3` [LIRIODENINE], the IC50 was > 150 µM.
As for `COc1cc2c(cc1OC)-c1cc3ccc(O)c(OC)c3c[n+]1CC2` [DEHYDROCORYDALMINE TRIFLUOROACETATE], the figure is 96.5 µM; as for `COc1cc2c(cc1O)C=[N+](C)CC2`, 16 µM; as for `COc1c(O)cc2c3c1-c1ccccc1C[C@H]3NCC2`, 123 µM.
Then `COc1cc2c(cc1O)C=[N+]1CCc3cc(OC)c(OC)cc3[C@@H]1C2`, with 154 µM; and `COc1cc2c3c(c1O)-c1c(ccc(OC)c1OC)C[C@@H]3[N+](C)(C)CC2`, with > 140 µM; and `O[C@@H]1c2ccccc2-c2c3c(cc4c2[C@H]1NCC4)OCO3`, with > 126 µM.
As for `COc1cc2c(cc1OC)[C@@H]1Cc3ccc(O)c(OC)c3C=[N+]1CC2`, the figure is 30.8 µM; as for `COc1cc2ccnc3c2c(c1OC)-c1ccccc1C3=O` [LYSICAMINE], 16.1 µM.
For the compound `COc1cc2c(cc1O)C[C@H]1NCCc3cc4c(c-2c31)OCO4`, the IC50 was > 117 µM.
On to `COc1c(O)c2c3c(c1OC)-c1cc4c(cc1C[C@@H]3NCC2)OCO4`, for which inhibition was half-maximal at 76.9 µM (IC50).
With `COc1ccc(C[C@H]2c3cc(O)c(OC)cc3CCN2C)cc1O`, half-maximal inhibition (IC50) was put at 72.2 µM.

Usually IC50 stands for the concentration that gives 50% inhibition.
